# Results as given in US12268632B2, “Self-retaining implantable drug delivery device” (GoldenBiotech, LLC, priority 2018, dated 2025).
# Experiments:
# Format in all cases: physicochemical
# [1] = Physical appearance and durometer mechanical properties of drug-loaded silicone polymer matrix test samples
# From the text: To test the loading capacity of a silicone elastomer polymer matrix for a prostaglandin analogue, polymer matrix with different amounts and types of a prostaglandin analogue were made and the physical and mechanical properties of the resulting polymerized drug-loaded matrix were characterized (Tables 1-3). These polymer matrix test samples were made by mixing together a prostaglandin analogue, a liquid cyclic vinyl siloxane elastomer, a crosslinker, and a catalyst using a high-speed mixer and then heated the capped container at 70° C. for 24 hours to cure the mixture. A filler, such as a fumed silica, was also used to provide sufficient mechanical strength to the polymerized matrix. In addition, an inhibitor was used to slow the crosslinking reaction to a workable rate. The resulting thin-disc-shaped drug-loaded polymer matrix was allowed to cool to room temperature and then placed in 4° C. for 24 hours to increase stiffness of the material. The physical appearance of each drug-loaded polymer matrix test sample was examined visually and its mechanical properties analyzed using a durometer.
# [2] = In vitro drug release from drug-loaded silicone polymer matrix in PBS pH 7.4 at 37° C., RPHPLC; conditions: uncoated silicone polymer matrix loaded with 10% latanoprost, FIG. 5
# Method: To test the controlled release properties of the disclosed drug-loaded silicone polymer matrices, the effects of a coating were examined. In these experiments, test samples were made as described in Example 1 to produce thin-disc-shaped drug-loaded polymer matrix. From this material, test samples were prepared by 1) cutting out rectangular polygons of about 3 mm length, about 1 mm width and about 1 mm height were cut from polymerized drug-loaded material; or 2) cutting out cylindrical plugs of about 3 mm length and having a diameter of about 0.5 mm to about 1 mm. The weight of the test samples was in the range of about 0.1 mg to about 4 mg.
# These cut test samples were then coated using one of three procedures. […]
# To examine the drug release properties of a test sample, each sample was placed in 2 mL Eppendorf tube containing 1.5 mL of Phosphate Buffered Saline, pH 7.4 (PBS). […] An aliquot of the removed PBS was then analyzed by reversed phase HPLC (RPHPLC) to determine the amount of drug released from the test sample during the incubation period. […] Peak detection and quantitation were determined by establishing a calibration curve using known amounts of each drug tested and the amount of drug present in the test sample aliquot interpolated from this calibration curve using ChemStation software.
# [3] = Higuchi equation analysis of drug release (cumulative release vs square root of time); conditions: coated drug-loaded silicone polymer matrices
# Method: In order to ascertain whether the mechanism of drug release was based on diffusion, data obtained from various coated silicone polymer matrices were analyzed using the Higuchi equation. This analysis determines the degree of proportionality between the cumulative amount of drug released and the square root of time (SQRT). […] As exemplified FIG. 10, data is plotted as the square root of time taken on the x-axis and the cumulative percentage of drug release on the y-axis.
# [4] = Korsmeyer-Peppas analysis of drug release (log percent released vs log time)
# Method: To confirm the results obtained based on the Higuchi equation analysis, the data above was also analyzed using the Korsmeyer-Peppas plot, which evaluates the mechanism of drug release by plotting the log of percent drug released over the log time in hours. If n equals 0.45, then Fickian diffusion is indicated for a cylinder (0.42 for cylinder of low aspect ratio). […] As exemplified FIG. 11, data is plotted as the log of cumulative percent drug released on the y-axis and the log time in hours on the x-axis.
# [5] = Chemical stability of prostaglandin analogues in PBS, RPHPLC; conditions: PBS at pH 4, 7 and 10 and at 4° C., 33° C. and 50° C.
# Method: The chemical stability of prostaglandin analogues was also examined. In these experiments, a prostaglandin analogue was incubated in phospho-buffered saline (PBS) at pH 4, 7 and 10 and at 4° C., 33° C. and 50° C. representing long term storage, eye temperature and accelerate temperature conditions respectively. Analyses were performed by RPHPLC as described in Example 2, noting any hydrolysis products formed. […] This stability is most likely due to the amide linkage in bimatoprost which is much more hydrolytically stable than the ester linkage in latanoprost and travoprost.
# [6] = Release from post-loaded travoprost section of the implantable device; conditions: post loaded 3 mm section, uncoated, at 38 days
# Method: A central section of a self-retaining implantable drug delivery device disclosed herein was loaded with travoprost by cutting a 3 mm section of the device and then placed into 0.200 ml of hexanes for 3 hours. Following this period, the self-retaining implantable drug delivery device was placed immediately into 0.050 mL of a travoprost stock solution 25 mg/mL in ethanol and allowed to stand overnight. The following day, this section was washed sequentially by dipping into a water bath, followed by a 10% acetonitrile bath. It was dried at 80 C and set to release the following day. The section was allowed to release over a period of 38 days. The loading was determined to be approximately 13 mcg. […] This release profile is predicted by the Higuchi mechanism. This type of loading procedure we term post loading. The loaded section is coated with a poly(p-xylylene) polymer and two tiny holes are placed completely through the section. The section is then molded together with the two flanking sections of the stent to form the final product. The release from this modified stent follows a near zero order release in vitro and in vivo in preclinical animal models and clinical studies.
# [7] = Drug Loading 5%, coated drug-loaded silicone polymer matrices
# [8] = Drug Loading 10%, coated drug-loaded silicone polymer matrices
# [9] = Drug Loading 15%, coated drug-loaded silicone polymer matrices
# [10] = Drug Loading 20%, coated drug-loaded silicone polymer matrices
# [11] = Drug Loading 2.5%, coated drug-loaded silicone polymer matrices
amount that would not produce a satisfactory drug-loaded silicone polymer matrix [1],Average Linear Regression r^2 Value (Higuchi) ([3]; Drug Loading 5%),Average Linear Regression r^2 Value (Higuchi) ([3]; Drug Loading 10%),Average Linear Regression r^2 Value (Higuchi) ([3]; Drug Loading 15%),Average Linear Regression r^2 Value (Higuchi) ([3]; Drug Loading 20%),"Average n Values (Korsmeyer-Peppas) [4, 7]","Average n Values (Korsmeyer-Peppas) [4, 8]","Average n Values (Korsmeyer-Peppas) [4, 9]","Average n Values (Korsmeyer-Peppas) [4, 10]",Average n Values (Korsmeyer-Peppas) ([4]; Mean over drug loadings),chemical stability (hydrolysis) [5],Average Linear Regression r^2 Value (Higuchi) ([3]; Drug Loading 1%),Average Linear Regression r^2 Value (Higuchi) ([3]; Drug Loading 2.5%),"Average n Values (Korsmeyer-Peppas) ([4]; Drug Loading 1%, coated drug-loaded silicone polymer matrices)","Average n Values (Korsmeyer-Peppas) [4, 11]",amount released [6],Compound,physical appearance of silicone polymer matrix ([1]; 25% test sample),release profile [2],physical appearance of silicone polymer matrix ([1]; 20% test sample),physical appearance of silicone polymer matrix ([1]; 15% and 20% test samples)
≥ 20%,0.997,0.988,0.994,0.972,0.411±,0.377±,0.380±,0.601±,0.37 ± 0.08,the most stable,0.992,0.995,0.326±,0.372±,–,"CCNC(=O)CCC/C=C\C[C@@H]1[C@@H](/C=C/[C@@H](O)CCc2ccccc2)[C@H](O)C[C@@H]1O [Bimatoprost, bimatoprost]",–,–,brittle and contained clumps of unincorporated components from the mixture,–
≥ 15%,0.972,0.941,–,–,0.507±,0.453±,–,–,0.50 ± 0.09,had the requisite stability,–,0.976,–,0.543±,99%,"CC(C)OC(=O)CCC/C=C\C[C@@H]1[C@@H](/C=C/[C@@H](O)COc2cccc(C(F)(F)F)c2)[C@H](O)C[C@@H]1O [Travoprost, travoprost]",–,–,–,exhibited more elasticity but had surfaces with tacky attributes and a consistency that was not fully homogeneous

Compound,amount that would not produce a satisfactory drug-loaded silicone polymer matrix [1],Average Linear Regression r^2 Value (Higuchi) ([3]; Drug Loading 5%),Average Linear Regression r^2 Value (Higuchi) ([3]; Drug Loading 10%),Average Linear Regression r^2 Value (Higuchi) ([3]; Drug Loading 15%),Average Linear Regression r^2 Value (Higuchi) ([3]; Drug Loading 20%),"Average n Values (Korsmeyer-Peppas) [4, 7]","Average n Values (Korsmeyer-Peppas) [4, 8]","Average n Values (Korsmeyer-Peppas) [4, 9]","Average n Values (Korsmeyer-Peppas) [4, 10]",Average n Values (Korsmeyer-Peppas) ([4]; Mean over drug loadings),chemical stability (hydrolysis) [5],Average Linear Regression r^2 Value (Higuchi) ([3]; Drug Loading 1%),Average Linear Regression r^2 Value (Higuchi) ([3]; Drug Loading 2.5%),"Average n Values (Korsmeyer-Peppas) ([4]; Drug Loading 1%, coated drug-loaded silicone polymer matrices)","Average n Values (Korsmeyer-Peppas) [4, 11]",amount released [6],physical appearance of silicone polymer matrix ([1]; 25% test sample),release profile [2],physical appearance of silicone polymer matrix ([1]; 20% test sample),physical appearance of silicone polymer matrix ([1]; 15% and 20% test samples)
"CC(C)OC(=O)CCC/C=C\C[C@@H]1[C@@H](CC[C@@H](O)CCc2ccccc2)[C@H](O)C[C@@H]1O [Latanoprost, latanoprost]",≥ 25%,0.964,0.983,0.990,0.990,0.504±,0.501±,0.712±,1.200±,0.57 ± 0.16,travoprost was significantly more stable than latanoprost,–,–,–,–,–,exhibited more elasticity but had a surface with tacky attributes and a consistency that was not fully homogeneous,"rapid release of the drug over the first five days, which then tapers off and by day 12 shows no further significant release",–,–
